Columns and labels:
[1] = test system: LoVo (human colorectal adenocarcinoma) cell line; experiment: MTS cytotoxicity assay, LoVo cell line; format: cell-based; details: 48 h of incubation
Description: (§1) LoVo, MDA-MB-231 and HUVEC human cell lines were purchased from American Type Culture Collection (ATCC). Cells were routinely maintained in culture either in culture flasks or seeded in plates, using Dulbecco’s modified Eagle medium/nutrient mixture F-12 (DMEM:F12) medium supplemented with […], 10% fetal calf serum (Sigma Aldrich, St. Louis, MO, USA), 100 units/mL penicillin, 100 μg/mL streptomycin and incubated at 37 °C in 5% CO2 humidified atmosphere.
(§2) Cytotoxicity studies were performed in 96-well microtiter plates with flat bottoms (Falcon, Teterboro, NJ, USA) using the CellTiter 96 Aqueous One Solution Cell Proliferation Assay (Promega, Madison, WI, USA), an MTS-based colorimetric assay. Metabolically active cells have the ability to reduce MTS [3-(4,5-dimethylthiazol-2-yl)-5-(3-carboxymethoxyphenyl)-2-(4-sulfophenyl)-2H-tetrazolium, inner salt], a yellow tetrazolium salt, to a colored formazan that is soluble in the culture medium. Briefly, 15 × 10^3 cells per well were cultured in 100 µL culture medium. After 24 h, adherent cells were treated with different concentrations of the studied compounds, as well as adriamycin (Adr) and cisplatin (Cis-Pt), used as positive controls for 24 h and 48 h, respectively. Each well was then filled with 20 µL of reagent containing MTS and PES (phenazine ethosulfate, a cationic dye with excellent chemical stability that binds to MTS and produces a stable solution). The resulting formazan was determined using a Tecan GENios Spectrophotometer (Tecan US, Durham, NC, USA) by measuring the absorbance at λ = 492 nm after incubation for 4 h at 37 °C with moderate agitation every 15 min. The cytotoxicity tests were performed in triplicate, with results reported as mean values with standard deviations (SD). The cytotoxicity of DMSO was also investigated under the same conditions, and no harmful effect was found at doses less than 1%.
(§3) Data were expressed as cell viability by comparing with untreated cells considered 100% viable, using the following formula:(1) Cell viability (%)=absorbance of treated cells−absorbance of culture medium/absorbance of untreated cells−absorbance of culture medium

[2] = test system: HUVEC (human umbilical vein endothelial cells); experiment: MTS cytotoxicity assay, HUVEC normal cell line; format: cell-based; details: 24 h of incubation
Description: as §1, §2, §3

N.N.[Cl][Pt][Cl] [Cis-Pt, cisplatin, reference compound] gave an IC50 [1] of 38.6 ± 4.63 µM and an IC50 [2] of 78.5 ± 16 µM.

From paper PMC9412414, “A Study on Repositioning Nalidixic Acid via Lanthanide Complexation: Synthesis, Characterization, Cytotoxicity and DNA/Protein Binding Studies” (Pharmaceuticals, 2022)
